Experiments:
Type in all cases: in vivo
Sorghum [1] = assay: Post-emergence test/greenhouse; settings: 60 g ai./ha; for Sorghum, % damage: Table B-4, post-emergence, rated after three weeks vs untreated control
Protocol: (§1) Post-emergence Test Solvent: 5 parts by weight of acetone Emulsifier: 1 part by weight of alkylaryl polyglycol ether To produce a suitable preparation of active compound, 1 part by weight of active compound is mixed with the stated amount of solvent, the stated amount of emulsifier is added and the concentrate is diluted with water to the desired concentration. Test plants which have a height of 5-15 cm are sprayed with the preparation of the active compound in such a way as to apply the particular amounts of active compound desired per unit area. The concentration of the spray liquor is chosen so that the particular amounts of active compound desired are applied in 1000 l of water/ha. After three weeks, the degree of damage to the plants is rated in % damage in comparison to the development of the untreated control. The figures denote: [table]

Xanthium = assay: Post-emergence test/greenhouse; settings: for Xanthium, % damage: Table B-4, post-emergence, 60 g ai./ha, rated after three weeks vs untreated control
Protocol: as §1

Solanum [2] = assay: Post-emergence test/greenhouse; settings: for Solanum, % damage: Table B-4, post-emergence, rated after three weeks vs untreated control; for % damage, Solanum: post-emergence, after three weeks
Protocol: as §1

Amaranthus [3] = assay: Post-emergence test/greenhouse; settings: for Amaranthus, % damage: Table B-4, post-emergence, 60 g ai./ha, rated after three weeks vs untreated control
Protocol: as §1

Lolium [4] = assay: Pre-emergence test/greenhouse; settings: 125 g ai./ha, after three weeks
Protocol: (§2) Pre-emergence Test Solvent: 5 parts by weight of acetone Emulsifier: 1 part by weight of alkylaryl polyglycol ether To produce a suitable preparation of active compound, 1 part by weight of active compound is mixed with the stated amount of solvent, the stated amount of emulsifier is added and the concentrate is diluted with water to the desired concentration. Seeds of the test plants are sown in normal soil. After about 24 hours, the soil is sprayed with the preparation of the active compound in such a way as to apply the particular amounts of active compound desired per unit area The concentration of the spray liquor is chosen so that the particular amounts of active compound desired are applied in 1000 l of water/ha. After three weeks, the degree of damage to the plants is rated in % damage in comparison to the development of the untreated control. The figures denote: [table]

Alopecurus [5] = assay: Pre-emergence test/greenhouse; settings: after three weeks
Protocol: as §2

Sorghum [6] = assay: Pre-emergence test/greenhouse; settings: 125 g ai./ha, after three weeks
Protocol: as §2

Chenopodium = assay: Pre-emergence test/greenhouse; settings: after three weeks
Protocol: as §2

Matricaria [7] = assay: Pre-emergence test/greenhouse; settings: 125 g ai./ha, after three weeks
Protocol: as §2

Solanum [8] = assay: Pre-emergence test/greenhouse; settings: 125 g ai./ha, after three weeks
Protocol: as §2

Amaranthus [9] = assay: Pre-emergence test/greenhouse; settings: after three weeks
Protocol: as §2

weeds [10] = assay: Pre-emergence test; settings: cf. Tables A-1 to A-5
Protocol: as §2

weeds [11] = assay: Post-emergence test; settings: cf. Tables B-1 to B-4
Protocol: as §1

Echinochloa [12] = assay: Post-emergence test/greenhouse; settings: Table B-4, post-emergence, 60 g ai./ha, rated after three weeks vs untreated control
Protocol: as §1, with “Emulsifier:” for “Post-emergence Test Solvent: 5 parts by weight of acetone Emulsifier:”, “control.” for “control. The figures denote: [table]”

Bromus = assay: Pre-emergence test/greenhouse; settings: after three weeks
Protocol: as §2

Veronica = assay: Pre-emergence test/greenhouse; settings: after three weeks
Protocol: as §2

Cotton = assay: Pre-emergence test/greenhouse; settings: after three weeks
Protocol: as §2

Echinochloa [13] = assay: Pre-emergence test/greenhouse; settings: after three weeks
Protocol: as §2

Wheat [14] = assay: Pre-emergence test/greenhouse; settings: after three weeks
Protocol: as §2

Lolium [15] = assay: Post-emergence test/greenhouse; settings: 60 g ai./ha, after three weeks
Protocol: as §1

Alopecurus [16] = assay: Post-emergence test/greenhouse; settings: 60 g ai./ha, after three weeks
Protocol: as §1

Stellaria = assay: Post-emergence test/greenhouse; settings: 60 g ai./ha, after three weeks
Protocol: as §1

Ipomoea = assay: Post-emergence test/greenhouse; settings: 60 g ai./ha, after three weeks
Protocol: as §1

Wheat [17] = assay: Post-emergence test/greenhouse; settings: after three weeks
Protocol: as §1

Maize = assay: Pre-emergence test/greenhouse; settings: 125 g ai./ha, after three weeks
Protocol: as §2

Viola = assay: Pre-emergence test/greenhouse; settings: 125 g ai./ha, after three weeks
Protocol: as §2

Matricaria [18] = assay: Post-emergence test/greenhouse; settings: 125 g ai./ha, after three weeks
Protocol: as §1

[19] = post-emergence, 125 g ai./ha, after three weeks

SMILES	Sorghum, % damage (Sorghum [1]) [%]	Xanthium, % damage (Xanthium) [%]	Solanum, % damage (Solanum [2]; 60 g ai./ha) [%]	Amaranthus, % damage (Amaranthus [3]) [%]	% damage, Alopecurus (Alopecurus [5]; 125 g ai./ha) [%]	% damage, Sorghum (Sorghum [6]) [%]	% damage, Chenopodium (Chenopodium; 125 g ai./ha) [%]	% damage, Matricaria (Matricaria [7]) [%]	% damage, Amaranthus (Amaranthus [9]; 125 g ai./ha) [%]	activity against weeds (weeds [10])	activity against weeds (weeds [11])	Echinochloa, % damage (Echinochloa [12]) [%]	% damage, Cotton (Cotton; 125 g ai./ha) [%]	further results
CCOc1nn(C(=O)NS(=O)(=O)c2c(OC)cccc2SCCF)c(=O)n1C [Example 59]	100	95	90	100	100	100	100	100	100	very strong activity	very strong activity	100		% damage, Lolium (Lolium [4]): 100%; % damage, Solanum (Solanum [8]): 100%
COc1nn(C(=O)NS(=O)(=O)c2c(SC)cccc2SC)c(=O)n1C [Example 50]	95	95	95	95							very strong activity	80		
CCOc1nn(C(=O)NS(=O)(=O)c2c(SC(C)(C)C)cccc2C(F)(F)F)c(=O)n1C [Example 60]					90		100		100	very strong activity			20	% damage, Bromus (Bromus; 125 g ai./ha): 95%; % damage, Veronica (Veronica; 125 g ai./ha): 100%; % damage, Echinochloa (Echinochloa [13]; 125 g ai./ha): 100%; % damage, Wheat (Wheat [14]; 125 g ai./ha): 0%
COc1cccc(SC(C)C)c1S(=O)(=O)NC(=O)n1nc(OC)n(C)c1=O [Example 24]					95	70	100	70	100	very strong activity	very strong activity		0	% damage, Lolium (Lolium [15]): 60%; % damage, Alopecurus (Alopecurus [16]): 90%; % damage, Sorghum (Sorghum [1]; post-emergence, after three weeks): 90%; % damage, Stellaria (Stellaria): 95%; % damage, Solanum (Solanum [2]; 60 g ai./ha): 95%; % damage, Ipomoea (Ipomoea): 90%; % damage, Wheat (Wheat [17]; 60 g ai./ha): 15%; % damage, Maize (Maize): 0%; % damage, Viola (Viola): 100%
COc1nn(C(=O)NS(=O)(=O)c2c(SC)cccc2C(F)(F)F)c(=O)n1C [Example 61]										very strong activity				% damage, Bromus (Bromus; 60 g ai./ha): 100%; % damage, Alopecurus (Alopecurus [5]; 60 g ai./ha): 95%; % damage, Chenopodium (Chenopodium; 60 g ai./ha): 100%; % damage, Veronica (Veronica; 60 g ai./ha): 80%; % damage, Amaranthus (Amaranthus [9]; 60 g ai./ha): 100%; % damage, Cotton (Cotton; 60 g ai./ha): 0%; % damage, Echinochloa (Echinochloa [13]; 60 g ai./ha): 100%; % damage, Wheat (Wheat [14]; 60 g ai./ha): 30%
CSc1cccc(SC)c1S(=O)(=O)NC(=O)n1nc(SC)n(C)c1=O [Example 51]											very strong activity			% damage, Xanthium (Xanthium; [19]): 95%; % damage, Matricaria (Matricaria [18]): 95%; % damage, Solanum (Solanum [2]; 125 g ai./ha): 95%; % damage, Amaranthus (Amaranthus [3]; [19]): 95%; % damage, Wheat (Wheat [17]; 125 g ai./ha): 20%
